# Measured values published in BindingDB's records for doi:10.1124/jpet.102.038075 (Nih, 2002).
# Several values for one entry are separate records, joined by “and”; a condition that tells them apart may be missing. Equal entries are not always repeated. Bridge positions count the residues as written; N and C are the ends. Square brackets hold non-standard residues; d marks the D form. Peptide text beside a SMILES is read from it. Nle = CCCC[C@H](N)C(=O)O
# Experiments:
# [1] = target: T1, Vasoactive intestinal polypeptide receptor 2 (Homo sapiens, UniProt P41587)
# T1 sequence (P41587 whole entry): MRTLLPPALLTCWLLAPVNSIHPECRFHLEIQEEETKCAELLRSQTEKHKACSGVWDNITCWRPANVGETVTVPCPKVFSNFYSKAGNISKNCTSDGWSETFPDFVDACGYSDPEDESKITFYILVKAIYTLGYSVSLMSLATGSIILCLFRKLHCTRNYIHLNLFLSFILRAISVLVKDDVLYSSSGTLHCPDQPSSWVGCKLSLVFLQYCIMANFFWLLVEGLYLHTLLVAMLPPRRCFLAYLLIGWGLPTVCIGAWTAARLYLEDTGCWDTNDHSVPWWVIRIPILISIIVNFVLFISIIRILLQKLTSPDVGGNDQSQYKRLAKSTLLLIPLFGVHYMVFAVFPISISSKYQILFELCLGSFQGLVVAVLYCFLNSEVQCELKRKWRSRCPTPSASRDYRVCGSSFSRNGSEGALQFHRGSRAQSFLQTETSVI
# [2] = target: T2, Vasoactive intestinal polypeptide receptor 2 (Rattus norvegicus, UniProt P35000)
# T2 sequence (P35000 whole entry): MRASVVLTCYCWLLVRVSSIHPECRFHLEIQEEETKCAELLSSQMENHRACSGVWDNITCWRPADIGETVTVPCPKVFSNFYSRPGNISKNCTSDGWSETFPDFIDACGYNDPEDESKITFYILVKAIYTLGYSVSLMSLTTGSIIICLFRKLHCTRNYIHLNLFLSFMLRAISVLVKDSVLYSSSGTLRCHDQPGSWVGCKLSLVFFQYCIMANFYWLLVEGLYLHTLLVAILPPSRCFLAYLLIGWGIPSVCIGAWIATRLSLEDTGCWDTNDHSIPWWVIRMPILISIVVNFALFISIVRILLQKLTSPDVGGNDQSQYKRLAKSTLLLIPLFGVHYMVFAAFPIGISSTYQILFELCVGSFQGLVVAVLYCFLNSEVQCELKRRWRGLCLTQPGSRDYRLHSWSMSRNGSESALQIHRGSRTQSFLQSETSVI
# [3] = target: T3, Vasoactive intestinal polypeptide receptor 1 (Homo sapiens, UniProt P32241)
# T3 sequence (P32241 whole entry): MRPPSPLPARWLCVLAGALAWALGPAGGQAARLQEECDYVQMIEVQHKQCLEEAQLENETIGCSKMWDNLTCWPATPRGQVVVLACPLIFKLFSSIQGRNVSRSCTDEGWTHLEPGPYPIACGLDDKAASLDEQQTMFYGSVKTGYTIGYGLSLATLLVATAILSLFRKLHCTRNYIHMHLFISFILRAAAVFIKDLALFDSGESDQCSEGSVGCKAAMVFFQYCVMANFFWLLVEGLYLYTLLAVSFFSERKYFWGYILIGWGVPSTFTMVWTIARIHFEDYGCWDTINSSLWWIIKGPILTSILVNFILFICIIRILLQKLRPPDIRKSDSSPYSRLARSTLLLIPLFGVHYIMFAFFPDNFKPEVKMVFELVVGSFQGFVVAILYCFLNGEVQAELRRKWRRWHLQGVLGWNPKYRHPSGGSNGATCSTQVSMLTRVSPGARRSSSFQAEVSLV
Molecule,Ki [1],Ki [2],Ki [3]
H-HSDAVFTDNYTALRKQMAVKKYLNSILN-NH2 [VIP Ala12],331 nM and 676 nM and 288 nM,25.1 nM and 251 nM,
H-HSDAAFTDNYTRLRKQMAVKKYLNSILN-NH2 [VIP Ala5],12.2 nM and 48.1 nM and 120 nM,13.2 nM and 23 nM,
H-HSDAVFTDNYTRLRKQMAVKKYLNSALN-NH2 [VIP Ala26],9.1 nM and 11.8 nM and 15.2 nM and 50.1 nM and 49 nM and 27.9 nM,,
H-HSDAVFTDNATRLRKQMAVKKYLNSILN-NH2 [VIP Ala10],3000 nM,724 nM and 2660 nM,
H-HSDAVFTDNYTRLRKQMAVKKYLNSILA-NH2 [VIP Ala28],34.7 nM and 21 nM and 27.2 nM,,
H-HSAAVFTDNYTRLRKQMAVKKYLNSILN-NH2 [VIP Ala3],977 nM and 1150 nM and 2420 nM,138 nM and 546 nM,
H-HSDAVFTDNYTRLRKQMAVKAYLNSILN-NH2 [VIP Ala21],8.1 nM and 17 nM and 12.6 nM,1.3 nM and 12.4 nM,
H-HSDAVFTDNYTRARKQMAVKKYLNSILN-NH2 [VIP Ala13],48.9 nM and 81.3 nM and 52.3 nM,,
H-HSDAVFTDNYTRLRKQAAVKKYLNSILN-NH2 [VIP Ala17],,2.3 nM and 5 nM,
H-HSDAVFTDNYTRLRKQMAVKKYLNSIAN-NH2 [VIP Ala27],19.5 nM and 79.4 nM and 89.1 nM,,
H-HSDAVFTDNYTRLRKQMAVKKYLASILN-NH2 [VIP Ala24],4.1 nM and 14.1 nM and 18.6 nM,0.4 nM and 3.2 nM,
H-HSDAVFTANYTRLRKQMAVKKYLNSILN-NH2 [VIP Ala8],4.4 nM and 2.7 nM and 13.3 nM,,
CC[C@H](C)[C@H](NC(=O)[C@H](CO)NC(=O)[C@H](CC(N)=O)NC(=O)[C@H](CC(C)C)NC(=O)[C@H](Cc1ccc(O)cc1)NC(=O)[C@H](CCCCN)NC(=O)[C@H](CCCCN)NC(=O)[C@@H](NC(=O)[C@H](C)NC(=O)[C@H](CCSC)NC(=O)[C@H](CCC(N)=O)NC(=O)[C@H](CCCCN)NC(=O)[C@H](CCCN=C(N)N)NC(=O)[C@H](CC(C)C)NC(=O)[C@H](CCCN=C(N)N)NC(=O)[C@@H](NC(=O)[C@H](Cc1ccc(O)cc1)NC(=O)[C@H](CC(N)=O)NC(=O)[C@H](CC(=O)O)NC(=O)[C@H](C)NC(=O)[C@H](Cc1ccccc1)NC(=O)[C@@H](NC(=O)[C@H](C)NC(=O)[C@H](CC(=O)O)NC(=O)[C@H](CO)NC(=O)[C@@H](N)Cc1cnc[nH]1)C(C)C)[C@@H](C)O)C(C)C)C(=O)N[C@@H](CC(C)C)C(=O)N[C@@H](CC(N)=O)C(N)=O [VIP Ala7],1700 nM and 1120 nM and 3000 nM,138 nM and 631 nM,
H-HSDAVFTDNYTRLRKQMAVAKYLNSILN-NH2 [VIP Ala20],10 nM and 12.6 nM and 21.9 nM,,
H-HSDAVFTDNYTRLRKQMAAKKYLNSILN-NH2 [VIP Ala19],2.4 nM and 2.6 nM and 5 nM,0.43 nM and 3.4 nM,
H-HADAVFTDNYTRLRKQMAVKKYLNSILN-NH2 [VIP Ala2],3.4 nM and 3.5 nM and 2.1 nM,,
H-HSDAVFTDAYTRLRKQMAVKKYLNSILN-NH2 [VIP Ala9],4.3 nM and 3.2 nM and 6 nM,,
H-HSDAVFTDNYTRLRKQMAVKKALNSILN-NH2 [VIP Ala22],3000 nM,759 nM and 3000 nM,
H-HSDAVFTDNYTRLRKQMAVKKYANSILN-NH2 [VIP Ala23],1700 nM and 2820 nM and 2710 nM,110 nM and 972 nM,
CCCC[C@H](NC(=O)[C@H](CCC(N)=O)NC(=O)[C@H](CCCCN)NC(=O)[C@H](CCCNC(=N)N)NC(=O)[C@H](CC(C)C)NC(=O)[C@H](CCCCN)NC(=O)[C@@H](NC(=O)[C@H](Cc1ccc(O)cc1)NC(=O)[C@H](CC(N)=O)NC(=O)[C@H](CCC(=O)O)NC(=O)[C@@H](NC(=O)[C@H](Cc1ccccc1)NC(=O)[C@@H](NC(=O)[C@H](C)NC(=O)[C@H](CC(=O)O)NC(=O)[C@H](CO)NC(=O)[C@H](Cc1c[nH]cn1)NC(C)=O)C(C)C)[C@@H](C)O)[C@@H](C)O)C(=O)N[C@@H](C)C(=O)N[C@@H](C)C(=O)N[C@@H](CCCCN)C(=O)N[C@H]1CCCCNC(=O)C[C@@H](C(=O)N[C@@H](CC(C)C)C(=O)N[C@@H](CCCCN)C(=O)N[C@@H](CCCCN)C(=O)NCC(=O)NCC(=O)N[C@H](C(N)=O)[C@@H](C)O)NC(=O)[C@H](CC(N)=O)NC(=O)[C@H](CC(C)C)NC(=O)[C@H](Cc2ccc(O)cc2)NC1=O [Ac-L-His-L-Ser-L-Asp-L-Ala-L-Val-L-Phe-L-Thr-L-Glu-L-Asn-L-Tyr-L-Thr-L-Lys-L-Leu-L-Arg-L-Lys-L-Gln-L-Nle-L-Ala-L-Ala-L-Lys-L-Lys(1)-L-Tyr-L-Leu-L-Asn-L-Asp(1)-L-Leu-L-Lys-L-Lys-Gly-Gly-L-Thr-NH2] (Ac-HSDAVFTENYTKLRKQ[Nle]AAKKYLNDLKKGGT-NH2; lactam 21-25),2.1 nM and 15.9 nM and 3.9 nM,,1200 nM and 1020 nM
H-HSDAVFTNSYRKVLKRLSARKLLQDIL-NH2 [NSC_0],3000 nM,,1.7 nM and 7.7 nM and 8.9 nM
H-ASDAVFTDNYTRLRKQMAVKKYLNSILN-NH2 [VIP Ala1],209 nM and 251 nM and 559 nM,75.7 nM and 479 nM,
H-HSDAVFTDNYTRLRAQMAVKKYLNSILN-NH2 [VIP Ala15],19.1 nM and 40.7 nM and 38.4 nM,1.9 nM and 16.6 nM,
H-HSDAVFTDNYTRLAKQMAVKKYLNSILN-NH2 [VIP Ala14],47.9 nM and 110 nM and 166 nM,,
